# Results published in patent publication US9056835B2, “LPA2 receptor-specific benzoic acid derivatives” (University of Tennessee Research Foundation, priority 2012, dated 2015).
# Experiments:
# [1] = molecular target: T1, LPA2, TRIP6 and NHERF2 (Homo sapiens, UniProt Q9HBW0); assay: Ligand-induced macromolecular complex formation with LPA2; type: cell-based; conditions: HEK293T, FLAG-LPA2 and EGFP-NHERF2, 10 μM, 10 min
# T1 construct: expressed in transfected cells; host or cells: HEK293T, transient co-transfection
# T1 sequence (Q9HBW0 whole entry): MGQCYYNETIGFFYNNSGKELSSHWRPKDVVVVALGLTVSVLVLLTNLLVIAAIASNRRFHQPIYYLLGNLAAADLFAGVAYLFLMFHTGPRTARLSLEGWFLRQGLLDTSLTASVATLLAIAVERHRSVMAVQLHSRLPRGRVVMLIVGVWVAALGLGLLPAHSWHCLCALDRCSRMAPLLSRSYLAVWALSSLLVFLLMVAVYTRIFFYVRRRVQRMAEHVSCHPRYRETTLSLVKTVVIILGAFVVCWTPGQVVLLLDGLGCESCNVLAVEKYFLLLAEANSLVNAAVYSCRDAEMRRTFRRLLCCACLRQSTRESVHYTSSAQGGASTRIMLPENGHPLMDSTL
# T1 sequence (Q15599 whole entry partner): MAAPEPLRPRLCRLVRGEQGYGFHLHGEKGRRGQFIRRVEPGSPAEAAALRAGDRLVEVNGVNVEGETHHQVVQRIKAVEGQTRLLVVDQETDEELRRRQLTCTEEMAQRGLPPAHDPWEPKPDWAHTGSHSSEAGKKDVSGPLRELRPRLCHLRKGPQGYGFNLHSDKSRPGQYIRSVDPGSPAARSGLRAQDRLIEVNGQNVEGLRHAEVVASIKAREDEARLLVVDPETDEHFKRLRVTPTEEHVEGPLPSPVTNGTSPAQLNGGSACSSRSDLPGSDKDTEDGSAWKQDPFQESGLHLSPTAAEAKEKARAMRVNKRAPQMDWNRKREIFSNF
# T1 sequence (Q15654 whole entry partner): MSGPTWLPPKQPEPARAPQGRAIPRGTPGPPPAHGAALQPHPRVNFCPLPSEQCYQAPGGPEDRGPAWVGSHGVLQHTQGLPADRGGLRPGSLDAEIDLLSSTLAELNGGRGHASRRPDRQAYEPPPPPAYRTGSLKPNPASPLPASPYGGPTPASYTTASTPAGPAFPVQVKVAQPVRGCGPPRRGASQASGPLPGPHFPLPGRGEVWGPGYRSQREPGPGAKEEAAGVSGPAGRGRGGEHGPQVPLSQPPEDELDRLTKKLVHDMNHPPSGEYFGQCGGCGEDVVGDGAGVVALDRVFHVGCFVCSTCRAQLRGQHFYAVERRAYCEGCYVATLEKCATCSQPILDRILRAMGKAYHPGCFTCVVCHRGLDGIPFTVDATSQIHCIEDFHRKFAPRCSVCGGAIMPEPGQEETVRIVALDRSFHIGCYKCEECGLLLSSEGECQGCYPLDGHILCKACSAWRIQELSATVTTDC
# Description: LPA2 forms a ternary complex with TRIP6 and NHERF2. This complex is assembled via multiple protein-protein interactions that include: binding of NHERF2 to the C-terminal PSD95/Dlg/ZO-1 domain (PDZ)-binding motif of LPA2, the binding of TRIP6 to the Zinc-finger-like CxxC motif of LPA2, and binding of NHERF2 to the PDZ-binding motif of TRIP6. To examine ligand-induced macromolecular complex formation, HEK293T cells were transfected with FLAG-LPA2 and enhanced green fluorescent protein (EGFP)-NHERF2, and the cells were exposed to 10 μM GRI977143 for 10 min as described in detail in our previous publication (E et al., The LPA2 receptor-mediated supramolecular complex formation regulates its antiapoptotic effect. J Biol Chem (2009) 284: 14558-14571). The complex was pulled down using anti-FLAG M2 monoclonal antibody-conjugated agarose beads (Sigma-Aldrich) and processed for western blotting using anti-EGFP (gift from Dr. A. P. Naren; UTHSC, TN), anti-FLAG (Sigma-Aldrich), and anti-TRIP6 (Bethyl Laboratories; Montgomery, Tex.) antibodies.
# [2] = tested on: MM1 hepatoma cells; assay: MM1 hepatoma cell invasion of endothelial monolayer; type: cell-based, rat; conditions: LPA 1 μM, GRI977143 10 μM, 20 h
# Method: Mouse embryonic fibroblast (MEF) cells were isolated from E13.5 LPA1&2 double knockout (DKO) embryos. MEFs were transduced with empty vector or LPA2-containing lentiviruses and selected with 1.5 μg/ml puromycin. Cells were maintained in Dulbecco's modified Eagle medium (DMEM) supplemented with 10% (V/V) fetal bovine serum (FBS), 2 mM L-glutamine, 100 U/mL penicillin, and 100 μg/mL streptomycin. Serum-free medium contained 0.1% (W/V) BSA in DMEM. The rat intestinal epithelial cell line 6 (IEC-6) was obtained from the American Type Culture Collection (Rockville, Md.) at passage 13; passages 16-21 were used in all experiments. IEC-6 cells were maintained in a humidified 37° C. incubator in an atmosphere of 90% air and 10% CO2. Growth medium consisted of DMEM supplemented with 5% heat inactivated FBS, 10 μg/mL insulin, and 50 μg/mL gentamycin. […]
# HUVEC (1.3×10^5 cells at passages 5 to 7) were seeded into each well of a 12-well plate pre-coated with 0.2% gelatin (Sigma-Aldrich). […] Tumor cells that penetrated the monolayer were photographed using a NIKON TiU inverted microscope with phase-contrast and fluorescence illumination. […] A total of five non-overlapping fields was imaged per well, and the number of invaded MM1 cells (displaying a flattened morphology underneath the monolayer) was counted.
# [3] = tested on: PARP-1; assay: Immunoblot, PARP-1 cleavage; type: cell-based, mouse; conditions: 10 μM
# Method: Experiments were performed on vector- and LPA2-transduced MEF cells. To measure caspase 3, 7, 8, or 9 activity and DNA fragmentation, cells were plated in 48-well plates (2×10^4 cells/well). To detect PARP-1 cleavage and Bax translocation, 1.5×10^6 cells were plated in 10-cm dishes and cultured overnight in full growth medium. The next morning, the growth medium was replaced by serum-starvation medium and cells were pretreated for 1 h with LPA (1-10 μM), OTP (1-10 μM), GRI977143 (1-10 μM), or vehicle. Caspase activity, DNA fragmentation, PARP-1 cleavage, and Bax translocation were measured 5 h after incubation with 1.7 μM Adriamycin or 24 h after serum withdrawal.
# To detect ligand-induced ERK1/2 activation, vector- and LPA2-transfected MEF cells were serum starved 3 h before exposure to 1 μM LPA, 1 μM OTP, 10 μM GRI977143, or vehicle for 10 min. For ERK1/2 activation and PARP-1 cleavage measurements, cells were harvested in 1× Laemmli sample buffer and separated using 12% Laemmli SDS-polyacrylamide gels. To assess Bax translocation, cell lysates were separated into cytosolic, mitochondrial, and nuclear fractions using the Cell Fractionation Kit-Standard (MitoSciences; Eugene, Oreg.). […] Samples were boiled for 5 min and loaded onto 12% SDS-polyacrylamide gels. Western blotting was carried out as previously described (Valentine et al., 2010). […]
SMILES,assembly of macromolecular complex LPA2-TRIP6-NHERF2 [1],MM1 cell invasion of HUVEC monolayers [2],"PARP-1 cleavage ([3]; LPA2-transduced MEF, Adriamycin or serum withdrawal)",PARP-1 cleavage ([3]; vector-transduced cells)
O=C(O)c1ccccc1SCCCN1C(=O)c2cccc3cccc(c23)C1=O [GRI977143],elicited the assembly of the signaling complex,significant increase,reduced PARP-1 cleavage,not observed
"CCCCCCCC/C=C\CCCCCCCC(=O)OC[C@@H](O)COP(=O)(O)O [LPA 18:1, Lysophosphatidic acid (18:1)]",–,significant increase,–,–
